Reference: the NIST ThermoML archive (doi:10.1016/j.jct.2018.01.024)

Experiment: mn = molality of the nth substance listed, in mol/kg
Settings: Liquid

NC(N)=O [urea] + O
mass density [kg/m3]
Settings	288.15 K	298.15 K	308.15 K	323.15 K	333.15 K
101 kPa, Vibrating tube method, m1 = 0.093	–	998.52	995.45	989.4	984.53
101 kPa, Vibrating tube method, m1 = 0.1063	–	998.73	995.65	989.59	984.72
101 kPa, Vibrating tube method, m1 = 0.141	–	999.27	996.18	990.1	985.22
101 kPa, Vibrating tube method, m1 = 0.152	–	999.45	996.35	990.26	985.38
101 kPa, Vibrating tube method, m1 = 0.1809	–	999.9	996.79	990.68	985.79
101 kPa, Vibrating tube method, m1 = 0.2423	–	1000.86	997.71	991.57	986.66
101 kPa, Vibrating tube method, m1 = 0.4362	–	1003.84	1000.59	994.33	989.38
101 kPa, Vibrating tube method, m1 = 0.5644	–	1005.78	1002.47	996.13	991.15
101 kPa, Vibrating tube method, m1 = 1.008	–	1012.3	1008.78	1002.19	997.11
101 kPa, Vibrating tube method, m1 = 1.609	–	1020.67	1016.91	1010.03	1004.81
101 kPa, Vibrating tube method, m1 = 2.505	–	1032.29	1028.21	1020.95	1015.53
101 kPa, Vibrating tube method, m1 = 3.376	–	1042.7	1038.34	1030.77	1025.17
101 kPa, Vibrating tube method, m1 = 4.33	–	1053.2	1048.55	1040.72	1034.98
101 kPa, Vibrating tube method, m1 = 5.39	–	1063.84	1058.96	1050.87	1044.98
101 kPa, Vibrating tube method, m1 = 8	–	1086.63	1081.22	1072.6	1066.38
101 kPa, Vibrating tube method, m1 = 9.9	–	1100.56	1094.97	1086.08	1079.64
101 kPa, Vibrating tube method, m1 = 12.8	–	1118.82	1112.9	1103.59	1096.9
10000 kPa, Constant-volume piezometry, m1 = 0.1809	–	1004.31	1001.1	994.94	–
10000 kPa, Constant-volume piezometry, m1 = 0.4362	–	1008.22	1004.89	998.57	–
10000 kPa, Constant-volume piezometry, m1 = 0.5644	–	1010.14	1006.76	1000.36	–
10000 kPa, Constant-volume piezometry, m1 = 1.609	–	1024.95	1021.13	1014.19	–
10000 kPa, Constant-volume piezometry, m1 = 2.505	–	1036.5	1032.37	1025.05	–
10000 kPa, Constant-volume piezometry, m1 = 3.376	–	1046.86	1042.44	1034.82	–
10000 kPa, Constant-volume piezometry, m1 = 5.39	–	1067.88	1062.95	1054.83	–
10000 kPa, Constant-volume piezometry, m1 = 8	–	1090.56	1085.13	1076.49	–
10000 kPa, Constant-volume piezometry, m1 = 10.99	–	1111.68	1105.95	1096.87	–
10000 kPa, Constant-volume piezometry, m1 = 12.8	–	1122.59	1116.69	1107.38	–
25000 kPa, Constant-volume piezometry, m1 = 0.1809	–	1010.8	1007.46	1001.22	–
25000 kPa, Constant-volume piezometry, m1 = 0.4362	–	1014.67	1011.22	1004.83	–
25000 kPa, Constant-volume piezometry, m1 = 0.5644	–	1016.58	1013.08	1006.62	–
25000 kPa, Constant-volume piezometry, m1 = 1.609	–	1031.23	1027.31	1020.35	–
25000 kPa, Constant-volume piezometry, m1 = 2.505	–	1042.68	1038.45	1031.14	–
25000 kPa, Constant-volume piezometry, m1 = 3.376	–	1052.93	1048.43	1040.83	–
25000 kPa, Constant-volume piezometry, m1 = 5.39	–	1073.78	1068.78	1060.7	–
25000 kPa, Constant-volume piezometry, m1 = 8	–	1096.33	1090.83	1082.18	–
25000 kPa, Constant-volume piezometry, m1 = 10.99	–	1117.29	1111.57	1102.45	–
25000 kPa, Constant-volume piezometry, m1 = 12.8	–	1128.17	1122.24	1112.95	–
50000 kPa, Constant-volume piezometry, m1 = 0.1809	–	1021.19	1017.66	1011.26	–
50000 kPa, Constant-volume piezometry, m1 = 0.4362	–	1025	1021.35	1014.82	–
50000 kPa, Constant-volume piezometry, m1 = 0.5644	–	1026.87	1023.19	1016.57	–
50000 kPa, Constant-volume piezometry, m1 = 1.609	–	1041.28	1037.21	1030.14	–
50000 kPa, Constant-volume piezometry, m1 = 2.505	–	1052.51	1048.14	1040.78	–
50000 kPa, Constant-volume piezometry, m1 = 3.376	–	1062.57	1057.95	1050.36	–
50000 kPa, Constant-volume piezometry, m1 = 5.39	–	1083.08	1078.02	1069.99	–
50000 kPa, Constant-volume piezometry, m1 = 8	–	1105.37	1099.83	1091.23	–
50000 kPa, Constant-volume piezometry, m1 = 10.99	–	1126.18	1120.31	1111.32	–
50000 kPa, Constant-volume piezometry, m1 = 12.8	–	1136.9	1130.92	1121.73	–
75000 kPa, Constant-volume piezometry, m1 = 0.1809	–	1031.09	1027.35	1020.8	–
75000 kPa, Constant-volume piezometry, m1 = 0.4362	–	1034.82	1030.99	1024.31	–
75000 kPa, Constant-volume piezometry, m1 = 0.5644	–	1036.66	1032.8	1026.04	–
75000 kPa, Constant-volume piezometry, m1 = 1.609	–	1050.81	1046.61	1039.38	–
75000 kPa, Constant-volume piezometry, m1 = 2.505	–	1061.84	1057.37	1049.87	–
75000 kPa, Constant-volume piezometry, m1 = 3.376	–	1071.73	1067.04	1059.32	–
75000 kPa, Constant-volume piezometry, m1 = 5.39	–	1091.95	1086.84	1078.73	–
75000 kPa, Constant-volume piezometry, m1 = 8	–	1113.92	1108.4	1099.84	–
75000 kPa, Constant-volume piezometry, m1 = 10.99	–	1134.57	1128.64	1119.74	–
75000 kPa, Constant-volume piezometry, m1 = 12.8	–	1145.19	1139.16	1130.01	–
100000 kPa, Constant-volume piezometry, m1 = 0.1809	–	1040.52	1036.61	1029.92	–
100000 kPa, Constant-volume piezometry, m1 = 0.4362	–	1044.19	1040.2	1033.37	–
100000 kPa, Constant-volume piezometry, m1 = 0.5644	1049.66	1046	1041.98	1035.08	–
100000 kPa, Constant-volume piezometry, m1 = 1.609	1063.93	1059.92	1055.64	1048.25	–
100000 kPa, Constant-volume piezometry, m1 = 2.505	1075.04	1070.84	1066.32	1058.62	–
100000 kPa, Constant-volume piezometry, m1 = 3.376	1085.01	1080.63	1075.91	1067.97	–
100000 kPa, Constant-volume piezometry, m1 = 5.39	1105.48	1100.6	1095.48	1087.2	–
100000 kPa, Constant-volume piezometry, m1 = 8	1127.8	1122.4	1116.79	1108.07	–
100000 kPa, Constant-volume piezometry, m1 = 10.99	1148.53	1142.75	1136.92	1127.82	–
100000 kPa, Constant-volume piezometry, m1 = 12.8	1159.2	1153.24	1147.3	1138.03	–
